For the assay, the target named is T1, CYP51Ca (recombinant protein CYP51 of C. albicans) (Candida albicans, UniProt P10613).
T1 construct: gene ERG11; commercial recombinant protein from Sangon Biotech (Shanghai)
Put plainly: biolayer interferometry (BLI), protein immobilised on APS sensor. It counts as binding. The source says: biolayer interferometry (BLI), protein immobilised on APS sensor on CYP51Ca (recombinant protein CYP51 of C. albicans) | berberine binds to CYP51Ca in a dose-dependent manner, with a dissociation constant (KD)

T1 sequence (P10613 whole entry): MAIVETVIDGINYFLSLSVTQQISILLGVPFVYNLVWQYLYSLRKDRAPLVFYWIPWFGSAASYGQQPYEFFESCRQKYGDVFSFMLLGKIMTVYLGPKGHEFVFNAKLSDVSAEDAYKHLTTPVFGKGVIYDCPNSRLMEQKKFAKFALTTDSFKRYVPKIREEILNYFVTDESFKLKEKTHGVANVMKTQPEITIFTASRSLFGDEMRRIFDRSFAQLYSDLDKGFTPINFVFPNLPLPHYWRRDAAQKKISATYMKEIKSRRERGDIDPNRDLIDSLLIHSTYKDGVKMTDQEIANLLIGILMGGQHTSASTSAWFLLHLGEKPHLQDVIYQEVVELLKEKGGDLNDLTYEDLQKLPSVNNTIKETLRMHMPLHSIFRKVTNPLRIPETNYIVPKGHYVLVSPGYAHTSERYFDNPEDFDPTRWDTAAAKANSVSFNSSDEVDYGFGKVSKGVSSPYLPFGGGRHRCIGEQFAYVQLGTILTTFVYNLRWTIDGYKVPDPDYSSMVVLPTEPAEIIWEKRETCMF

Regarding `COc1ccc2cc3[n+](cc2c1OC)CCc1cc2c(cc1-3)OCO2` [berberine], the Kd (commonly the equilibrium constant for the complex coming apart) is under 1 pM.

The values above are taken from PMC11547813, “The Antifungal Effects of Berberine and Its Proposed Mechanism of Action Through CYP51 Inhibition, as Predicted by Molecular Docking and Binding Analysis” (Molecules, 2024).
